Experimental data taken from patent US20030162760A1 (priority 1999, published 2003).
Converted amounts (≈) assume the structure as drawn. Where two headings read alike, the source gives them in different places.

Assays:
[1] = tested on: Propionibacterium acnes JCM6425 strain; test: Minimum inhibitory concentration (MIC) against Propionibacterium, turbidity of culture; format: cell-based
Protocol: By the measurement of minimum inhibitory concentration (MIC), the ascorbic acid-2-phosphate zinc salt, the ascorbic acid-2-phosphate and zinc salt mixture and the ascorbic acid-2-glucoside and zinc salt mixture of the present invention were determined on their antibacterial action against Propionibacterium.
A platinum-loopful of cells of fresh Propionibacterium acnes JCM6425 strain were inoculated in a test tube containing 5 ml of GAM broth medium (produced by Nissui K.K.) previously sterilized and deaerated. Thereto, APZ, AP+Zn and AG+Zn prepared as in Examples 1 to 3, APM and AG, each diluted in a common ratio of 2 to have a concentration of from 10 to 0.078 mg/ml, were added and cultured at 35° C. for 72 hours under anaerobic conditions. After completion of cultivation, the test tube was thoroughly shaken and the turbidity of the culture solution was measured. The minimum concentration when the turbidity was not increased by cultivation was used as the minimum inhibitory concentration (MIC).

[2] = tested on: Staphylococcus aureus IFO12732 strain; test: Minimum inhibitory concentration (MIC) against Staphylococcus, turbidity of culture; format: cell-based
Protocol: A platinum-loopful of cells of fresh Staphylococcus aureus IFO12732 strain were inoculated in a test tube containing 5 ml of nutrient broth medium (produced by Difco) previously sterilized and deaerated. […] After the completion of cultivation, the turbidity of the culture solution was measured. The minimum concentration when turbidity was not increased by the cultivation was used as the minimum inhibitory concentration (MIC).

[3] = tested on: Pseudomonas-derived lipase type XIII; test: Lipase inhibitory activity (1), paranitrophenyl palmitate substrate; format: biochemical; settings: for Inhibitory Ratio: Pseudomonas lipase, pH 7.0, 30° C., 10 minutes
Protocol: The activity of inhibiting lipase derived from Pseudomonas of the ascorbic acid-2-phosphate zinc salt, the ascorbic acid-2-phosphate and zinc salt mixture and the ascorbic acid-2-glucoside and zinc salt mixture of the present invention was examined.
Pseudomonas-derived lipase type XIII (produced by Sigma) was dissolved in 100 mM phosphate buffer (pH: 7.0) to have a final concentration of 43 mU/ml. 2 ml of the resulting solution was poured in a small test tube and thereto, APZ, AP+Zn and AG+Zn prepared as in Examples 1 to 3, APM and AG were added each to have concentrations of 1 mg/ml and 10 mg/ml. The reaction was started by addition of a substrate paranitrophenyl palmitate at a final concentration of 0.14 mg/ml. The reaction was performed at 30° C. for 10 minutes under shaking. After completion of the reaction, the absorbance at a wavelength of 405 nm was measured and the difference from the absorbance of a control test tube where the substrate was not present was used as the activity. The ratio between activity when a sample was present and activity when the sample was not present was calculated as the inhibitory ratio of each sample and the values obtained were compared.

[4] = tested on: lipase derived from Propionibacterium; test: Lipase inhibitory activity (2), partially purified lipase, paranitrophenyl palmitate substrate; format: biochemical, Propionibacterium acnes JCM6425; settings: for Inhibitory Ratio: P. acnes lipase, pH 6.5, 30° C., 120 minutes
Protocol: The activity of inhibiting lipase derived from Propionibacterium of the ascorbic acid-2-phosphate zinc salt, the ascorbic acid-2-phosphate and zinc salt mixture and the ascorbic acid-2-glucoside and zinc salt mixture of the present invention was examined.
(§1) The culture solution of Propionibacterium acnes JCM6425 cultured in the same manner as in Example 7 was dialyzed with 50 mM phosphate buffer, then concentrated to about 1/10 the amount using an ultrafiltration film having a fraction molecular weight of 10,000 and used as the lipase partially purified product.
To 1.9 ml of 50 mM HEPES buffer (pH: 6.5) separately placed in a small test tube, 0.1 ml of the lipase partially purified product was added and thereto, APZ, AP+Zn and AG+Zn prepared in Examples 1 to 3, APM and AG were added each to have concentrations of 0.1 mg/ml, 1 mg/ml and 10 mg/ml. The reaction was started by addition of a substrate paranitrophenyl palmitate at a final concentration of 0.14 mg/ml. The reaction was performed at 30° C. for 120 minutes under shaking. After completion of the reaction, the absorbance at a wavelength of 405 nm was measured and the difference from the absorbance of a control test tube where the substrate was not present was used as the activity. The ratio between activity when a sample was present and activity when the sample was not present was calculated as the inhibitory ratio of each sample and the values obtained were compared.

[5] = tested on: hyaluronidase derived from Propionibacterium; test: Hyaluronidase inhibitory activity, partially purified enzyme, hyaluronic acid substrate; format: biochemical, Propionibacterium acnes JCM6425; settings: for Inhibitory Ratio: P. acnes hyaluronidase, pH 7.0, 30° C., 15 minutes
Protocol: The activity of inhibiting hyaluronidase derived from Propionibacterium of the ascorbic acid-2-phosphate zinc salt, the ascorbic acid-2-phosphate and zinc salt mixture and the ascorbic acid-2-glucoside and zinc salt mixture of the present invention was examined.
as §1, with “a membrane” for “an ultrafiltration film”, “hyaluronidase” for “lipase”
To 1.8 ml of 50 mM HEPES buffer (pH: 7.0) separately placed in a small test tube, 0.2 ml of the […] partially purified product was added and thereto, APZ, AP+Zn and AG+Zn prepared in Examples 1 to 3, APM and AG were added each to have concentrations of 0.1 mg/ml, 1 mg/ml and 10 mg/ml. The reaction was started by addition of a substrate hyaluronic acid at a final concentration of 0.8 mg/ml. The reaction was performed at 30° C. for 15 minutes under shaking. After the shaking, 0.1 ml of 0.2M potassium tetraborate was added, kept at 100° C. for 3 minutes and cooled. To this solution, 3 ml of a paradimethylaminobenzaldehyde reagent (obtained by mixing and dissolving 10 g of dimethylaminobenzaldehyde, 12.5 ml of 10N hydrochloric acid and 77.5 ml of glacial acetic acid) 10 times diluted with glacial acetic acid was added and left standing at 37° C. for 20 minutes to allow reaction with N-acetylglucosamine liberated to proceed and thereby cause coloring. The absorbance at a wavelength of 544 nm was measured and the difference from the absorbance of a control test tube where the substrate was not present was used as the activity. The ratio between activity when a sample was present and activity when the sample was not present was calculated as the inhibitory ratio of each sample and the values obtained were compared.

With `O=C1O[C@H]([C@@H](O)CO)C(O)=C1OP(=O)([O-])[O-].[Mg+2]` [APM, L-ascorbic acid-2-phosphate magnesium salt] the MIC ([1]; Cutibacterium acnes, Propionibacterium acnes JCM6425, GAM broth, 35° C., 72 hours, anaerobic, read-out: MIC) was greater than 10000 µg/mL, the MIC ([2]; Staphylococcus aureus IFO12732, nutrient broth, 35° C., 48 hours, shaking, read-out: MIC) was 10000 µg/mL and the “Inhibitory Ratio” value ([3]; sample 1 mg/ml) was 0%. For the same molecule, the “Inhibitory Ratio” value ([3]; sample 10 mg/ml) was 0%, the “Inhibitory Ratio” value ([4]; sample 0.1 mg/ml) was 0% and the “Inhibitory Ratio” value ([4]; sample 1 mg/ml) was 0%. The “Inhibitory Ratio” value ([4]; sample 10 mg/ml) was 0%, the “Inhibitory Ratio” value ([5]; sample 0.1 mg/ml) was 22% and the “Inhibitory Ratio” value ([5]; sample 1 mg/ml) was 32%. The “Inhibitory Ratio” value ([5]; sample 10 mg/ml) was 34%.
`O=C1O[C@H]([C@@H](O)CO)C(O)=C1O[C@H]1O[C@H](CO)[C@@H](O)[C@H](O)[C@H]1O` [AG, L-ascorbic acid-2-O-glucoside] was tested, and the MIC ([1]; Propionibacterium acnes JCM6425, GAM broth, 35° C., 72 hours, anaerobic) was greater than 10000 µg/mL, the MIC ([2]; Staphylococcus aureus IFO12732, nutrient broth, 35° C., 48 hours, shaking) was 10000 µg/mL (≈ 29.6 mM) and the “Inhibitory Ratio” value ([3]; sample 1 mg/ml) was 0%. For the same molecule, the “Inhibitory Ratio” value ([3]; sample 10 mg/ml) was 0%, the “Inhibitory Ratio” value ([4]; sample 0.1 mg/ml) was 0% and the “Inhibitory Ratio” value ([4]; sample 1 mg/ml) was 0%. For the same molecule, the “Inhibitory Ratio” value ([4]; sample 10 mg/ml) was 0%, the “Inhibitory Ratio” value ([5]; sample 0.1 mg/ml) was 10% and the “Inhibitory Ratio” value ([5]; sample 1 mg/ml) was 13%. The “Inhibitory Ratio” value ([5]; sample 10 mg/ml) was 22%.
`O=C1OC(C(O)CO)C2=C1OP(=O)([O][Zn][O]P1(=O)[O][Zn][O]C3=C(O1)C(=O)OC3C(O)CO)[O][Zn][O]2` (centres unmarked) was tested, and the MIC ([1]; Cutibacterium acnes, JCM6425, 72 h) was 313 µg/mL, the “antibacterial activity against Propionibacterium (in words)” value ([1]; summary of Table 1) was “verified to have antibacterial activity” and the MIC ([2]; Staphylococcus aureus, IFO12732, 48 h) was 625 µg/mL. For the same molecule, the “antibacterial action against Staphylococcus (in words)” value ([2]; summary of Table 2) was “verified to have antibacterial action”, the “lipase inhibitory activity (in words)” value ([3]; Pseudomonas-derived lipase, summary of Table 3) was “verified to have lipase inhibitory activity” and the “Inhibitory Ratio” value ([3]; sample 1 mg/ml) was 76%. The “Inhibitory Ratio” value ([3]; sample 10 mg/ml) was 98%, the “lipase inhibitory activity (in words)” value ([4]; Propionibacterium-derived lipase, summary of Table 4) was “verified to have strong lipase inhibitory activity” and the “Inhibitory Ratio” value ([4]; sample 0.1 mg/ml) was 93%. The “Inhibitory Ratio” value ([4]; sample 1 mg/ml) was 100%, the “Inhibitory Ratio” value ([4]; sample 10 mg/ml) was 100% and the “hyaluronidase inhibitory activity (in words)” value ([5]; Propionibacterium-derived hyaluronidase, summary of Table 5) was “verified to have strong hyaluronidase inhibitory activity”. The “Inhibitory Ratio” value ([5]; sample 0.1 mg/ml) was 80%, the “Inhibitory Ratio” value ([5]; sample 1 mg/ml) was 98% and the “Inhibitory Ratio” value ([5]; sample 10 mg/ml) was 100%.
